Data as given in patent publication US20250346582A1, “SPLEEN TYROSINE KINASE INHIBITORS AND METHODS OF USE THEREOF” (THE BOARD OF TRUSTEES OF THE UNIVERSITY OF ILLINOIS, priority 2022, published 2025).

What was measured:
[1] = test system: plasma membrane translocation of EGFP-Syk WT; experiment: Subcellular localization of EGFP-Syk WT in DT40 cells; assay type: cell-based, chicken; details: IgM stimulation
Description: DT40-Syk^−/− cells transfected with EGFP-Syk WT (or K220/K222A) and mCherry-mCherry-eMyoX-tPH were imaged under 100× magnification with a Nikon Eclipse Ti2 microscope using the NIS element software. For IgM stimulation, cells were dropped on the IgM-coated surface (10 ng/ml) covered with the imaging buffer (HBSS pH 7.4, 2 mM MgCl2, 1% FBS) and incubated for 10 min before imaging. Pearson's correlation coefficient (y) was calculated using Coloc 2, which is a Fiji's plugin for colocalization analysis. The plasma membrane was selected as the region of interest for calculation of the coefficient. Averages ±s.d.'s of γ values were calculated from triplicate determinations.

BLNK-SH2 = biological target: T1, BLNK-SH2 (Homo sapiens, UniProt Q8WV28); experiment: Fluorescence quenching vesicle binding assay, BLNK-SH2; details: Table 2, BLNK-SH2 binding to POPC/POPS/PIP3/dabsyl-PE vesicles; for Emax: read-out: Imax (%)
T1 construct: All SH2 domain constructs were cloned into the pRSET-B vector; polyhistidine (N); made in house; host or cells: Escherichia coli BL21 (DE3) pLysS
T1 sequence (Q8WV28 346-453 limits assumed): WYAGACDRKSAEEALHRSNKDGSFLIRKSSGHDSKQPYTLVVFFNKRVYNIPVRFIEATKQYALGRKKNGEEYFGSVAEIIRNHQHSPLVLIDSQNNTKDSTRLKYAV
Description: (§1) The membrane-binding assay is based on fluorescence quenching of EGFP fused to a SH2 domain by a dark quencher containing lipid, dabsyl-PE, incorporated in lipid vesicles. The plate reader assay was performed using the Synergy™ Neo spectrofluorometer at 25° C. Nontreated black polystyrene 96-well plates (Corning) were used. Protein (10-50 nM) with the increasing concentration of vesicles with a given lipid composition in 20 mM Tris buffer, pH 7.4, containing 0.16 M NaCl was added to each row of wells and the EGFP fluorescence emission at 516 nm was measured with excitation set at 485 nm. Z′ factor for the assay system was determined as described^74. Imax and IC50 values of inhibitors were determined using the equation, I=Imax/(1+IC50/[I]) where I and [I] indicate % inhibition and inhibitor concentration, respectively. The average and standard deviation values were obtained from triplicate determinations.
(§2) We also optimized a recently developed fluorescence quenching-based lipid-binding assay^47 for high-throughput screening of these molecules for their inhibitory activity against the PIP3-SH2 interaction. Specifically, we expressed SH2 domains as EGFP-tagged proteins and directly quantified their membrane binding by monitoring the quenching of EGFP fluorescence emission intensity by a dark quencher-containing lipid, N-dimethylaminoazo-benzenesulfonyl-phosphatidylethanolamine (dabsyl-PE), incorporated in the vesicles. We then screened for compounds that inhibited binding of Syk-cSH2, BLNK-SH2, and PLCγ2-cSH2, respectively, to 1-palmitoyl-2-oleoyl-PC (POPC)/1-palmitoyl-2-oleoyl-PS (POPS)/PIP3/dabsyl-PE (67:20:3:10) vesicles while eliminating those that inhibit their non-specific binding to anionic POPC/POPS/dabsyl-PE (70:20:10) vesicles. The quality of the screening system was evaluated using 1% dimethylsulfoxide (DMSO) and 20 μM D-myo-inositol-1,3,4,5-tetraphosphate (IP4) as negative and positive controls, respectively. The clear separation of positive and negative control data and the average Z′-factor of 0.7 supported the robustness of our system for high-throughput screen of PIP3-SH2 interaction inhibitors.

Syk-cSH2 = biological target: T2, Syk-cSH2 (Homo sapiens, UniProt P43405); experiment: Fluorescence quenching vesicle binding assay, Syk-cSH2; details: for IC50: read-out: IC50
T2 construct: polyhistidine (N); made in house; host or cells: Escherichia coli BL21 (DE3) pLysS
Description: as §1, §2

[2] = test system: BCR signaling axis (Syk-BLNK-PLCγ2); experiment: Western blot of BCR signaling axis in Raji B lymphocytes; assay type: cell-based; details: Raji B cells
Description: (§3) Cells were seeded at a density of 3.0×10^5 cells/well prior to incubation with inhibitors. Cells were incubated with 1-5 μM of Syk inhibitors overnight and stimulated with different antibodies: IgG2 for AML cells, IgM for Raji B cells, and OKT3 (Biolegend) for Jurkat cells. The cells were lysed in NP40 lysis buffer (50 mM Tris, pH 7.5, 150 mM NaCl, 1 mM EDTA, 1% NP40, 10% glycerol, 10 mM NaF, 10 mM Na3VO4, and the protease inhibitor cocktail) at 4° C. and the cell debris was removed by centrifugation. Samples were analyzed by SDS-PAGE. Proteins were separated and transferred to Immobilon-P polyvinylidene difluoride membrane (Millipore Sigma). The membrane was blocked with 5% bovine serum albumin for 1 h and incubated overnight at 4° C. with various antibodies (1:1000 dilution for all antibodies). After the unbound antibodies were removed by washing with 0.1% Tris buffer saline with 0.1% Tween20, the membranes were incubated with the horseradish peroxidase secondary antibody (1:5000 dilution) for 1 h at room temperature. The membranes were washed three more times with 0.1% Tris buffer saline with 0.1% Tween20 to remove the unbound horseradish peroxidase secondary antibody before imaging. The chemiluminescence intensity of protein bands in the gel was analyzed and documented by the Azure 500Q Imaging System.

PLCγ2-cSH2 = biological target: T3, PLCγ2-cSH2 (Homo sapiens, UniProt P16885); experiment: Fluorescence quenching vesicle binding assay, PLCγ2-cSH2; details: Table 2, PLCγ2-cSH2 binding to POPC/POPS/PIP3/dabsyl-PE vesicles; for Emax: read-out: Imax (%)
T3 construct: polyhistidine (N); made in house; host or cells: Escherichia coli BL21 (DE3) pLysS
T3 sequence (P16885 646-735 limits assumed): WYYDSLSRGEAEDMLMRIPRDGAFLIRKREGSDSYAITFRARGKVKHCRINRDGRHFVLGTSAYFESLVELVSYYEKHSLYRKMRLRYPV
Description: as §1, §2

MV4-11 cells = experiment: Generation of drug-resistant MV4-11 cells under chronic treatment; assay type: cell-based; details: inhibitor increased from 0.5 to 5 μM over 10 weeks
Description: (§4) Then the concentration was maintained at 5 μM.

pZAP70 = biological target: T4, pZAP70 (Homo sapiens, UniProt P43403); experiment: Western blot inhibition of ZAP70 phosphorylation in Jurkat T cells; assay type: cell-based; details: Jurkat T cells stimulated by OKT3; 5 μM overnight
T4 construct: host or cells: Jurkat T cells, OKT3-stimulated
T4 sequence (P43403 1-619): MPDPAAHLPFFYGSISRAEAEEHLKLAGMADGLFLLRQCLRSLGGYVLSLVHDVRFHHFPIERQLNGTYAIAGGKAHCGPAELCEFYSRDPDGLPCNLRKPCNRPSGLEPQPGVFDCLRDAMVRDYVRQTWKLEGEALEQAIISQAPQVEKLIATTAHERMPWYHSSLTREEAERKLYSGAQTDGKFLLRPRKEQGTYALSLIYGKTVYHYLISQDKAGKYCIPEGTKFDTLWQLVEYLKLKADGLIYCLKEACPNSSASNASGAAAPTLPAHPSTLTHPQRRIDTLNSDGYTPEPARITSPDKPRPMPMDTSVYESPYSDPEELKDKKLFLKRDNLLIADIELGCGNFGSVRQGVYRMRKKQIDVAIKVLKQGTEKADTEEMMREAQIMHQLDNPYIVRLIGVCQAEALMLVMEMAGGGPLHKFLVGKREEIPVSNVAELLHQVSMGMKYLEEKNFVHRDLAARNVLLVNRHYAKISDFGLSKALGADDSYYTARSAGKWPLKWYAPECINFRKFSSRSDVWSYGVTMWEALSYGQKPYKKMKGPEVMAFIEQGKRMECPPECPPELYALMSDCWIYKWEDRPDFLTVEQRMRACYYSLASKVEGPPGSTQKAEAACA
Description: (a) Cellular efficacy of WC35, WC36, and WC38 was determined by dose-dependent inhibition of Syk phosphorylation in Raji B cells. (b) Imax and IC50 values were determined by non-linear least-squares analysis of data using the equation: […] Each data represents average ±s.d. from triplicate measurements. […] Jurkat T cells were stimulated by OKT3. Cells were seeded at a density of 3.0×10^5 cells/well prior to incubation with inhibitors. […] IgG2 for AML cells, IgM for Raji B cells, and OKT3 (Biolegend) for Jurkat cells. […] Samples were analyzed by SDS-PAGE. Proteins were separated and transferred to Immobilon-P polyvinylidene difluoride membrane (Millipore Sigma). […] The chemiluminescence intensity of protein bands in the gel was analyzed and documented by the Azure […] Imaging System.

[3] = test system: phosphorylation of ERK1/2 and STAT3/5; experiment: Western blot of phosphorylation in HL60 cells; assay type: cell-based; details: RAS-mutated HL60 cells; 5 μM
Description: FIGS. 3A-3D show the inhibition of the signaling activity and proliferation of HL-60 AML cells by Syk-cSH2 inhibitors. […] DMSO was used as a negative control and GAPDH as a gel loading control. […] (c) Inhibition of phosphorylation of Syk, STAT3/5 and ERK1/2 in patient-derived primary AML cells by WC36. Cells were cultured overnight in the presence of CD34+ cytokine supplement. DMSO was used as a negative control. Representative data from one (Patient 1) of four patient samples are shown here. (d) Inhibition of the proliferation of four patient AML cells by WC36 measured by the colony growth assay. The number of colonies after WC36 treatment was normalized to the enumerated colonies after DMSO treatment.
as §3

[4] = test system: phosphorylation of Syk, ERK1/2 and STAT3/5; experiment: Western blot of phosphorylation in entospletinib-resistant MV4-11 cells; assay type: cell-based; details: 5 μM
Description: as §3, §4

[5] = Table 2, Syk-cSH2 binding to POPC/POPS/PIP3/dabsyl-PE vesicles
[6] = Table 3, efficacy determined by the vesicle binding assay

Compound	Imax (%) (Syk-cSH2; [6])	IC50 (Syk-cSH2; [6]) [µM]	also measured
CS(=O)(=O)N1CCN(Cc2cc3nc(-c4cccc5[nH]ncc45)nc(N4CCOCC4)c3s2)CC1 [GDC-0941]			plasma membrane translocation of EGFP-Syk WT [1]: greatly suppressed
CCOC(=O)NC(C(=O)OCC)c1cccc(Cl)n1 (stereo not drawn) [VG370]			Emax (BLNK-SH2): < 20%; Imax (%) (Syk-cSH2; [5]): <10%; effect on phosphorylation of BCR signaling proteins (Syk, BLNK, PLCγ2) [2]: selectively suppressed phosphorylation of PLCγ2; IC50 (PLCγ2-cSH2): 0.68 ± 0.05 µM; Emax (PLCγ2-cSH2): 40 to 50%
OCCc1c(Cl)cncc1I [VG594]			IC50 (BLNK-SH2): 0.4 ± 0.03 µM; Emax (BLNK-SH2): 40 to 50%; Imax (%) (Syk-cSH2; [5]): <10%; effect on phosphorylation of BCR signaling proteins (Syk, BLNK, PLCγ2) [2]: blocked the phosphorylation of BLNK and PLCγ2 without a significant effect on Syk phosphorylation; Emax (PLCγ2-cSH2): < 10%
CCOC(=O)C(=[N+]=[N-])C(Nc1ccccn1)c1ccc(O)cc1 (stereo not drawn) [WC-111]	Imax (%) ≤ 10	7	
CCOC(=O)C(=[N+]=[N-])C(Nc1ncccn1)c1ccc(O)cc1 (stereo not drawn) [WC-115]	Imax (%) = 20	2	
[N-]=[N+]=C(C(=O)OC1CCCC1)C(Nc1ccccn1)c1ccccc1 (stereo not drawn) [WC-118]	Imax (%) = 15	4	
[N-]=[N+]=C(C(=O)OC1CCCC1)C(Nc1ncccn1)c1ccc(C(F)(F)F)cc1 (stereo not drawn) [WC-120]	Imax (%) = 20	4	
CCOC(=O)C(=[N+]=[N-])C(Nc1ccccn1)c1ccc(C(F)(F)F)cc1 (stereo not drawn) [WC-121]	Imax (%) ≤ 10	4.8	
[N-]=[N+]=C(C(=O)OC1CCCCC1)C(Nc1cnccn1)c1cccnc1 (stereo not drawn) [WC-125]	Imax (%) = 20	1.5	
CCOC(=O)C(=[N+]=[N-])C(Nc1ccccn1)c1cccnc1 (stereo not drawn) [WC-128]	Imax (%) = 18	3.5	
[N-]=[N+]=C(C(=O)OC1CCCCC1)C(Nc1ncccn1)c1ccncc1 (stereo not drawn) [WC-130]	Imax (%) = 25	2	
[N-]=[N+]=C(C(=O)OC1CCCCC1)C(C=Cc1ccccc1)Nc1ncccn1 (stereo not drawn) [WC-132]	Imax (%) = 15	5	
c1cn2cc(-c3ccc4cn[nH]c4c3)nc(Nc3ccc(N4CCOCC4)cc3)c2n1 [entospletinib, reference compound]			development of acquired resistance (MV4-11 cells): readily developing resistance to entospletinib; inhibition of ZAP-70 phosphorylation (pZAP70): significantly inhibited ZAP-70 phosphorylation; inhibition of phosphorylation of ERK1/2 and STAT3/5 [3]: could not suppress phosphorylation of ERK1/2 and STAT3/5; inhibition of phosphorylation of Syk, ERK1/2 and STAT3/5 [4]: could not inhibit phosphorylation of ERK1/2 and STAT3/5 in resistant MV4-11 cells while still potently inhibiting Syk phosphorylation
